Test results: patent US20240101576A1, “HETEROCYCLIC INHIBITORS OF EGFR AND/OR HER2, FOR USE IN THE TREATMENT OF CANCER” (Scorpion Therapeutics, Inc., priority 2020, published 2024)

Tests used:
Type in all cases: cell-based
EGFR L858R (Ba/F3 cells) = target: T1, EGFR L858R (Ba/F3 cells) (Homo sapiens, UniProt P00533, L858R); test: Inhibitor activity on EGFR-dependent cell growth (CellTiter-Glo, 72 h), Ba/F3 EGFR L858R; conditions: read-out: BaF3 L858R IC50
T1 construct: expressed in transfected cells; host or cells: Ba/F3 (murine pro-B cells), retroviral transduction, puromycin selection, IL3-independent pool
Source text: (§1) Example A. Inhibitor Activity on EGFR-Dependent Cell Growth
(§2) Cell lines are generated by transducing Ba/F3 cells with retroviruses containing vectors with EGFR WT, EGFR L858R, EGFR exon 19del, EGFR L858R/C797S, EGFR exon 20 NPG Ins D770_N771, EGFR exon 20 ASV Ins V769_D770, EGFR exon 20 SVD Ins D770_N771, or EGFR exon 20 FQEA Ins A763_V764 genes and a puromycin selection marker. Transduced cells are selected with puromycin for 7 days and are then be transferred into culture media without Interleukin 3 (IL3). EGFR WT cells are maintained with supplemental EGF. Surviving cells are confirmed to express EGFR by Western blot and maintained as a pool. The IC50 date were included in Table 6 and Table 7.
(§3) 1.1 Cells are harvested from flask into cell culture medium and the cell number counted.
(§4) 1.2 Cells are diluted with culture medium to the desired density and 40 μL of cell suspension is added into each well of 384-well cell culture plate and the seeding density is 800 (FQEA, exon 19del), 600 (WT, NPG, L858R/C797S), or 400 (ASV, SVD, L858R) cells/well.
(§5) 2 Compound Preparation and Treatment
(§6) 2.1 Test compounds are dissolved to 10 mM in a DMSO stock solution. 45 μL of stock solution is transferred to a 384 polypropylene plate (pp-plate). Perform 3-fold, 10-point dilution via transferring 15 μL compound into 30 μL DMSO using a TECAN (EVO200) liquid handler.
(§7) 2.2 Spin plates at room temperature at 1,000 RPM for 1 minute.
(§8) 2.3 Transfer 120 nL of diluted compound from compound source plate into the cell plate.
(§9) 2.4 After compound treatment for 72 hours, perform CTG detection for compound treatment plates as described in “Detection” section.
(§10) 3.1 Plates are removed from incubators and equilibrated at room temperature for 15 minutes.
(§11) 3.2 Thaw the CellTiter Glo reagents and allow to equilibrate to room temperature before the experiment.
(§12) 3.3 Add 40 μL of CellTiter-Glo reagent into each well (at 1:1 to culture medium). Then place the plates at room temperature for 30 min followed by reading on EnVision.
(§13) 4.1 Inhibition activity is calculated following the formula below:
(§14) % Inhibition=100×(LumHC−LumSample)/(LumHC−LumLC) • where HC is obtained from cells treated with 0.1% DMSO only; and LC is obtained from culture medium only.
(§15) 4.2 2. Calculate the IC50 by fitting the Curve using Xlfit (v5.3.1.3), equation 201.
(§16) Y=Bottom+(Top−Bottom)/(1+10^((Log IC50−X)*HillSlope))

[1] = target: EGFR exon 19del (Ba/F3 cells) (Homo sapiens, UniProt P00533); test: Inhibitor activity on EGFR-dependent cell growth (CellTiter-Glo, 72 h), Ba/F3 EGFR exon 19del; conditions: Ba/F3 EGFR exon 19del cell growth, read-out: BaF3 Del19 IC50
EGFR exon 19del (Ba/F3 cells), sequence (P00533 with tags, fused parts or gaps DEL746-750): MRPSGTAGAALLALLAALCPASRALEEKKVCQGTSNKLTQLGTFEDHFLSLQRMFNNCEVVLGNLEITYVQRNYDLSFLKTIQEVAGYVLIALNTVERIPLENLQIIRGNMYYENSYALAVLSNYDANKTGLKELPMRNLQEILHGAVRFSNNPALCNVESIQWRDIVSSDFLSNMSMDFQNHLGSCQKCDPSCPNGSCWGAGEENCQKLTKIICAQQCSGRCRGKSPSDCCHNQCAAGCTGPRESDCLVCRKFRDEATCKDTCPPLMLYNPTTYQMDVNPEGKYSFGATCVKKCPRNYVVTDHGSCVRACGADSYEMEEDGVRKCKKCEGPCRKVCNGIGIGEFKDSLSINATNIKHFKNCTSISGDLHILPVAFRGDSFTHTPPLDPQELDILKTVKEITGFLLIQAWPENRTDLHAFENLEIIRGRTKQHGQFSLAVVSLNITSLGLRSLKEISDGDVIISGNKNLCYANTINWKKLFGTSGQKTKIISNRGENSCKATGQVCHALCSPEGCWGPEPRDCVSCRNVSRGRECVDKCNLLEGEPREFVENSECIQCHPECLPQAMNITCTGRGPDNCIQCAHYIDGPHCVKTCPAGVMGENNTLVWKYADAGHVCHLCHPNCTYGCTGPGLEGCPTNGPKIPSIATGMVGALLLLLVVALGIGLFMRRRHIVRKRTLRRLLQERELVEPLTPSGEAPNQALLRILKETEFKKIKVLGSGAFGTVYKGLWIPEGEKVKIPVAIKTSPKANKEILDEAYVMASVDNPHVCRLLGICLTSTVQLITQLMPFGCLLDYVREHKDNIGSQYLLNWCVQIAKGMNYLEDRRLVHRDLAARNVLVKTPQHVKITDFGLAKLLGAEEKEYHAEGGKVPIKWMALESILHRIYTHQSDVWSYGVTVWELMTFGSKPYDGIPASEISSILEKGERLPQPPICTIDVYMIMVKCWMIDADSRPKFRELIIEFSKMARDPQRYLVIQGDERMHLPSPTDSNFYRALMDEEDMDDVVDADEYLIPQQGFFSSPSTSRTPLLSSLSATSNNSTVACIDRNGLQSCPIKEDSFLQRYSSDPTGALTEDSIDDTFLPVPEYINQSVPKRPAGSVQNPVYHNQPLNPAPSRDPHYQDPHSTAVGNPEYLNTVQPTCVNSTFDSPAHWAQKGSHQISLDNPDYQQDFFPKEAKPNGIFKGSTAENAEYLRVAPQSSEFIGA
Source text: as §1, §2, §3, §4, §5, §6, §7, §8, §9, §10, §11, §12, §13, §14, §15, §16

EGFR WT (Ba/F3 cells) = target: T2, EGFR WT (Ba/F3 cells) (Homo sapiens, UniProt P00533); test: Inhibitor activity on EGFR-dependent cell growth (CellTiter-Glo, 72 h), Ba/F3 EGFR WT; conditions: read-out: BaF3 WT IC50
T2 construct: expressed in transfected cells; host or cells: Ba/F3 (murine pro-B cells), retroviral transduction, puromycin selection, maintained with EGF
T2 sequence (P00533 25-1210): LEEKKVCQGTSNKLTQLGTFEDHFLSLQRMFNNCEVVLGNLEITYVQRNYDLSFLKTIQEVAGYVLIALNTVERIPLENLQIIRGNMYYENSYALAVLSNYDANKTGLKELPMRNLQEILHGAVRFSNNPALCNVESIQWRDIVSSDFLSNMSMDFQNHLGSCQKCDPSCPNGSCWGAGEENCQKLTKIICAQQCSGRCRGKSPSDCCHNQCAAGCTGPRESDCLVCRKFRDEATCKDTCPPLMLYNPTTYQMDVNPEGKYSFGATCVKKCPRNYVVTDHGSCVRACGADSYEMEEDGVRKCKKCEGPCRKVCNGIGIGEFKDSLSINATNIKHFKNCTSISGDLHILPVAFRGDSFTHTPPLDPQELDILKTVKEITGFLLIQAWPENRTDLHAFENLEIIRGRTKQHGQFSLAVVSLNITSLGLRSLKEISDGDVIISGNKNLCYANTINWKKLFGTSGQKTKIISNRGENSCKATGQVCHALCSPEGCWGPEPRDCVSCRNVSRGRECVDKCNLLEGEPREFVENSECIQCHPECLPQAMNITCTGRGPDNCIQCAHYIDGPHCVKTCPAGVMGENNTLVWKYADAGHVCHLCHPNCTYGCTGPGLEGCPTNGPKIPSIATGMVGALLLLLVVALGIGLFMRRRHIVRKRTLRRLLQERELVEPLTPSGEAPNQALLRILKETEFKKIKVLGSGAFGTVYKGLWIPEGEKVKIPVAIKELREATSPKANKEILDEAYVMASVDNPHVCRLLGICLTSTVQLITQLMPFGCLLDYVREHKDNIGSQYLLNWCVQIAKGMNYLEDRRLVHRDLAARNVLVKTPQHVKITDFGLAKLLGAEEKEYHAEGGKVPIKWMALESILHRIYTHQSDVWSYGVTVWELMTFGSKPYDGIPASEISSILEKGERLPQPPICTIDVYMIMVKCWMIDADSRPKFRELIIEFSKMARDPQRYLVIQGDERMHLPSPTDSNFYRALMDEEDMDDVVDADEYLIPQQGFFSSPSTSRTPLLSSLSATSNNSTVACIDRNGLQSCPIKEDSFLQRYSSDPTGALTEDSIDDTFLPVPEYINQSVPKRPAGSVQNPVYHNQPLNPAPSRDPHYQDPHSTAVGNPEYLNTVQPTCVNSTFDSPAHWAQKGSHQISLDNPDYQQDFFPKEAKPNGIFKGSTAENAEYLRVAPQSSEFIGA
Outline: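 This growth assay used Ba/F3 cells that depend on wild-type EGFR and are kept in EGF without IL3. Compounds were made up as 10 mM DMSO stocks and diluted 3-fold over 10 points. 120 nL went onto 600 cells/well. After 72 hours, 40 μL CellTiter-Glo was added and luminescence read on EnVision after 30 min.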

[2] = target: T3, EGFR exon 20 NPG Ins D770_N771 (Ba/F3 cells) (Homo sapiens, UniProt P00533, INS770NPG); test: Inhibitor activity on EGFR-dependent cell growth (CellTiter-Glo, 72 h), Ba/F3 EGFR exon 20 NPG Ins; conditions: read-out: BaF3 NPG IC50
T3 construct: expressed in transfected cells; host or cells: Ba/F3 (murine pro-B cells), retroviral transduction, puromycin selection, IL3-independent pool
Outline: (§17)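 IC50s derive from a sigmoidal dose–response fit of CellTiter-Glo signal. The signal was normalised between […]-treated cells and cell-free medium. Ba/F3 mutant-EGFR cells, seeded at 400–800/well depending on the line, had 72 h of exposure to a 10-point, 3-fold compound series.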

[3] = target: T4, EGFR exon 20 ASV Ins V769_D770 (Ba/F3 cells) (Homo sapiens, UniProt P00533, INS769ASV); test: Inhibitor activity on EGFR-dependent cell growth (CellTiter-Glo, 72 h), Ba/F3 EGFR exon 20 ASV Ins; conditions: read-out: BaF3 ASV IC50
T4 construct: expressed in transfected cells; host or cells: Ba/F3 (murine pro-B cells), retroviral transduction, puromycin selection, IL3-independent pool
T4 sequence (P00533 with tags, fused parts or gaps INS769ASV): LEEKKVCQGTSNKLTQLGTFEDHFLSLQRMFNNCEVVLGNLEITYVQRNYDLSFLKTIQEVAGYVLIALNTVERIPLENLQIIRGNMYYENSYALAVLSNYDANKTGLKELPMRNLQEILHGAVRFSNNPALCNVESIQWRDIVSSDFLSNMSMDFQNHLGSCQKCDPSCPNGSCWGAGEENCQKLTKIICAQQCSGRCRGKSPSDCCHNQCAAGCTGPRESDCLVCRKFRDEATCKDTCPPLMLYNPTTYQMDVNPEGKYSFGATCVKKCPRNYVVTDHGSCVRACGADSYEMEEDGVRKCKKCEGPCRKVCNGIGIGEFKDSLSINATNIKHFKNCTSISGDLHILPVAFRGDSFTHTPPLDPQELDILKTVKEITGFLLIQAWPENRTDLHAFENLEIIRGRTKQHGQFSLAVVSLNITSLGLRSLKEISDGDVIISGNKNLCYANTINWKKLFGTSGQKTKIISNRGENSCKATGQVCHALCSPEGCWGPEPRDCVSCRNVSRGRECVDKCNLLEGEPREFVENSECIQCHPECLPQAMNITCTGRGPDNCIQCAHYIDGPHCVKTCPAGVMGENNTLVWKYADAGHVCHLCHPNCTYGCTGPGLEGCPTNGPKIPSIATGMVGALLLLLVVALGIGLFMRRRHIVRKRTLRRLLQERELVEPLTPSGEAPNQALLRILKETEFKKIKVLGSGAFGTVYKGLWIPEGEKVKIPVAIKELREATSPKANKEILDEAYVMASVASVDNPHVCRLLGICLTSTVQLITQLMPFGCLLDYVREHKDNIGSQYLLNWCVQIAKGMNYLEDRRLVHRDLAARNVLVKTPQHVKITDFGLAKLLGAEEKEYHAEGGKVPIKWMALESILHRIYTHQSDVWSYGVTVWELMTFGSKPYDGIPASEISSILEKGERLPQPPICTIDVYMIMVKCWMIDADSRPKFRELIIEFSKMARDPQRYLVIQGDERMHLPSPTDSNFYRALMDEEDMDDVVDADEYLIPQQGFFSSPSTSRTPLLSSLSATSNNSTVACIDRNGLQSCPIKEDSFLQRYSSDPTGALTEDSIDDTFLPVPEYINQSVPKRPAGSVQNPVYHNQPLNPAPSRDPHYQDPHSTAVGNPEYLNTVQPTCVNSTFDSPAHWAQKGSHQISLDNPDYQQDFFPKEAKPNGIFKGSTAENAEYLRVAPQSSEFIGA
Outline: as §17

[4] = target: T5, EGFR exon 20 SVD Ins D770_N771 (Ba/F3 cells) (Homo sapiens, UniProt P00533, INS770SVD); test: Inhibitor activity on EGFR-dependent cell growth (CellTiter-Glo, 72 h), Ba/F3 EGFR exon 20 SVD Ins; conditions: read-out: BaF3 SVD IC50
T5 construct: expressed in transfected cells; host or cells: Ba/F3 (murine pro-B cells), retroviral transduction, puromycin selection, IL3-independent pool
Outline: as §17

EGFR (CUTO14 cells) = EGFR (CUTO14 cells) (Homo sapiens, UniProt P00533); test: Inhibitor activity on EGFR phosphorylation (pEGFR AlphaLISA, 2 h), CUTO14 cells
Source text: Example B. Inhibitor Activity on EGFR phosphorylation (pEGFR)
EGFR mutant Ba/F3 cells were generated by transduction with retrovirus containing vectors expressing EGFR L858R, EGFR exon 19del, EGFR L858R/C797S, EGFR exon 20 NPG Ins D770_N771, EGFR exon 20 ASV Ins V769_D770, or EGFR exon 20 SVD Ins D770_N771 genes along with a puromycin selection marker. Transduced cells are selected with puromycin for 7 days and are then be transferred into culture media without Interleukin 3 (IL3). Surviving cells are confirmed to express EGFR by Western blot and maintained as a pool. CUTO14 cells were obtained from Dr. Robert C. Doebele at the University of Colorado. The IC50 date are included in Table 6 and Table 7.
as §3
1.2 Cells are diluted with culture medium to the desired density and 40 μL of cell suspension is added into each well of 384-well cell culture plate and the seeding density is 50K cells/well (Ba/F3) or 12.5K cells/well (CUTO14).
as §5, §6, §7
2.3 Transfer 5 nL of diluted compound from compound source plate into the cell plate.
2.4 After compound treatment for 2 hours, perform pEGFR detection by AlphaLISA for compound treatment plates as described in “Detection” section.
3 Detection by pEGFR AlphaLISA (Perkin-Elmer)
3.1 Plates are removed from incubators and equilibrated at room temperature for 10 minutes, and media was removed
3.2 10 μL of lysis buffer is added and plates shaken at 600 rpm for 1 hr.
3.3 Prepare acceptor mix just before use and dispense 5 μL of acceptor mix to all the wells. Shake 350 rpm for Ihr in the dark
3.4 Prepare donor mix under low light conditions prior to use. Dispense 5 μL of donor mix to all the wells. Mix well on the shaker, seal and wrap in aluminum foil and incubate 1.5 hrs at room temperature in the dark
3.5 Transfer 18.5 μL mixture to OptiPlate 384, and read using an Envision. The IC50 date were included in Table 6 and Table 7.

[5] = target: T6, EGFR exon 20 FQEA Ins A763_V764 (Ba/F3 cells) (Homo sapiens, UniProt P00533, INS763FQEA); test: Inhibitor activity on EGFR-dependent cell growth (CellTiter-Glo, 72 h), Ba/F3 EGFR exon 20 FQEA Ins; conditions: read-out: BaF3 FQEA IC50
T6 construct: expressed in transfected cells; host or cells: Ba/F3 (murine pro-B cells), retroviral transduction, puromycin selection, IL3-independent pool
T6 sequence (P00533 with tags, fused parts or gaps INS763FQEA): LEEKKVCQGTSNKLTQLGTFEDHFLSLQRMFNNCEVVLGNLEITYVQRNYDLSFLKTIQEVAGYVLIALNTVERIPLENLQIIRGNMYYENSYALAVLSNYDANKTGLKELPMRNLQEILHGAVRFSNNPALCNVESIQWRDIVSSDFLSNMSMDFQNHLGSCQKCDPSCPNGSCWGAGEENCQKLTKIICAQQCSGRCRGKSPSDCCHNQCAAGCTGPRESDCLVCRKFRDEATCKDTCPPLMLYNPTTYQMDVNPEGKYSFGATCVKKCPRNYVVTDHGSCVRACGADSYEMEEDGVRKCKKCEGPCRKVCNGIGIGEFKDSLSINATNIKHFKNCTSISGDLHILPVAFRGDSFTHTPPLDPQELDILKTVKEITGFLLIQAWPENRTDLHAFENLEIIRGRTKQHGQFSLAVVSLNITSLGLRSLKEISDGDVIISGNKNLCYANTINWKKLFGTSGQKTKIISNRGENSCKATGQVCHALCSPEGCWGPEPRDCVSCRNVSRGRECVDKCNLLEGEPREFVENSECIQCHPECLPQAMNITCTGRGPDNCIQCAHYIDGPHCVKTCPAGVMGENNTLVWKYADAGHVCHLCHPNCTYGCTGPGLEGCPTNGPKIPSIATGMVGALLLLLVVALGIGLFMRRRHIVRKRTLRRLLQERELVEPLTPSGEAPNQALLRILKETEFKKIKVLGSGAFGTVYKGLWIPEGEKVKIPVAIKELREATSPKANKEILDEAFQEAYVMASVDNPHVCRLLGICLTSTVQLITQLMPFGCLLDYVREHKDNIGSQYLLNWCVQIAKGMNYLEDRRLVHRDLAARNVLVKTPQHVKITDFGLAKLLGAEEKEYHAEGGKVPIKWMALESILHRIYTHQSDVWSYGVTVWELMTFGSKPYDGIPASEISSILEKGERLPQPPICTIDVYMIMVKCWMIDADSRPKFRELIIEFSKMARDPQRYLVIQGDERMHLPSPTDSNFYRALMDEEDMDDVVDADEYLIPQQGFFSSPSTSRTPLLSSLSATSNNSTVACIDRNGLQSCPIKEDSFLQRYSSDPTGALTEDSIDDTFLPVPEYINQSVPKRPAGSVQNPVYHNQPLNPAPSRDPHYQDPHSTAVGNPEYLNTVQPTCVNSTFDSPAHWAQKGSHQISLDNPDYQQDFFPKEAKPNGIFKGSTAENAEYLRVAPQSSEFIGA
Outline: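 72 h proliferation, Ba/F3 EGFR mutants (no IL3, puromycin-selected pools, EGFR confirmed by Western blot). Seeding of 400 L858R, 600 L858R/C797S and 800 exon 19del/FQEA cells per well. CellTiter-Glo used; controls were […] (high) and medium alone (low).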

IC50 (EGFR L858R (Ba/F3 cells)) [µM]	IC50 [1] [µM]	IC50 (EGFR WT (Ba/F3 cells)) [µM]	IC50 [2] [µM]	IC50 [3] [µM]	IC50 [4] [µM]	IC50 (EGFR (CUTO14 cells)) [µM]	IC50 [5] [µM]	Structure (SMILES)
< 0.1	< 0.1	0.1 to 1	< 0.1	< 0.1	< 0.1	< 0.1	–	COc1c(Cl)cccc1Nc1c(-c2ccnc(C)n2)[nH]c2c(C[C@@H]3COCCO3)c[nH]c(=O)c12 [compound 655, 3-[(3-chloro-2-methoxyphenyl)amino]-7-[(2R)-1,4-dioxan-2-ylmethyl]-2-(2-methylpyrimidin-4-yl)-1H,5H-pyrrolo[3,2-c]pyridin-4-one]
< 0.1	< 0.1	> 1	< 0.1	< 0.1	< 0.1	< 0.1	–	COc1c(Cl)cccc1Nc1c(-c2ccncn2)[nH]c2c(C[C@@H]3COCCO3)c[nH]c(=O)c12 [compound 656]
< 0.1	< 0.1	0.1 to 1	< 0.1	< 0.1	< 0.1	< 0.1	< 0.1	COc1c(Cl)cccc1Nc1c(-c2ccnc(N)n2)[nH]c2c1C(=O)NC[C@@H]2C[C@H]1COCCO1 [Compound 531, (7S)-2-(2-aminopyrimidin-4-yl)-3-[(3-chloro-2-methoxyphenyl)amino]-7-[(2S)-1,4-dioxan-2-ylmethyl]-1H,5H,6H,7H-pyrrolo[3,2-c]pyridin-4-one]
< 0.1	< 0.1	> 1	< 0.1	–	–	< 0.1	0.1 to 1	COc1c(Cl)cccc1Nc1c(-c2ccncc2F)[nH]c2c1C(=O)NC[C@H]2C[C@@H]1COCCO1 (single isomer, unassigned) [Compound 483]
–	–	> 1	> 1	> 1	> 1	< 0.1	–	COc1c(Cl)cccc1Nc1c(-c2ccncc2)[nH]c2c1C(=O)NCC2C[C@@H]1CN(C)CCO1 (single isomer, unassigned) [Compound 646]
–	–	> 1	0.1 to 1	0.1 to 1	0.1 to 1	< 0.1	–	COc1c(Cl)cc(F)cc1Nc1c(-c2ccnc(C)n2)[nH]c2c1C(=O)NC[C@H]2C[C@@H]1COCCO1 [compound 652]

More lines, now with the values behind:

Structure (SMILES)	IC50 (EGFR L858R (Ba/F3 cells)) [µM]	IC50 [1] [µM]	IC50 (EGFR WT (Ba/F3 cells)) [µM]	IC50 [2] [µM]	IC50 [3] [µM]	IC50 [4] [µM]	IC50 (EGFR (CUTO14 cells)) [µM]	IC50 [5] [µM]
C=CC(=O)N1CCC2(CC1)CNC(=O)c1c2[nH]c(-c2ccncn2)c1Nc1cccc(F)c1OC [Compound 611, 3′-[(3-fluoro-2-methoxyphenyl)amino]-1-(prop-2-enoyl)-2′-(pyrimidin-4-yl)-5′,6′-dihydro-1′H-spiro[piperidine-4,7′-pyrrolo[3,2-c]pyridin]-4′-one]	< 0.1	< 0.1	< 0.1	< 0.1	< 0.1	< 0.1	< 0.1	–
COc1c(Cl)cccc1Nc1c(-c2ccnc(Nc3cnn(C)n3)n2)[nH]c2c1C(=O)NCC2 [compound 592, 3-[(3-chloro-2-methoxyphenyl)amino]-2-{2-[(2-methyl-1,2,3-triazol-4-yl)amino]pyrimidin-4-yl}-1H,5H,6H,7H-pyrrolo[3,2-c]pyridin-4-one]	–	–	0.1 to 1	< 0.1	< 0.1	< 0.1	< 0.1	–
C=CC(=O)N1CCC2(CC1)CNC(=O)c1c2[nH]c(-c2ccncc2F)c1Nc1cc(F)cc(F)c1OC [compound 610]	–	–	0.1 to 1	< 0.1	< 0.1	< 0.1	< 0.1	–
COc1c(Cl)cccc1Nc1c(-c2ccncc2F)[nH]c2c1C(=O)NCC2C[C@@H]1CO[C@@H](CN(C)C)CO1 (single isomer, unassigned) [Compound 562, (7R*)-3-[(3-chloro-2-methoxyphenyl)amino]-7-{[(2R,5S)-5-[(dimethylamino)methyl]-1,4-dioxan-2-yl]methyl}-2-(3-fluoropyridin-4-yl)-1H,5H,6H,7H-pyrrolo[3,2-c]pyridin-4-one]	–	–	0.1 to 1	< 0.1	< 0.1	< 0.1	< 0.1	–
COc1c(Cl)cccc1Nc1c(-c2ccncc2F)[nH]c2c1C(=O)NC[C@@H]2C[C@@H]1CN(C)CCO1 [compound 790]	–	–	0.1 to 1	< 0.1	< 0.1	< 0.1	< 0.1	–
C=CC(=O)N1CCC2(CC1)CNC(=O)c1c2[nH]c(-c2ccnc(C)n2)c1Nc1cccc(Cl)c1OC [compound 643]	–	–	< 0.1	< 0.1	< 0.1	< 0.1	< 0.1	–
C=CC(=O)N1CCC2(CC1)CNC(=O)c1c2[nH]c(-c2ccncc2F)c1Nc1cc(F)cc(Cl)c1OC [Compound 559, 3′-[(3-chloro-5-fluoro-2-methoxyphenyl)amino]-2′-(3-fluoropyridin-4-yl)-1-(prop-2-enoyl)-5′,6′-dihydro-1′H-spiro[piperidine-4,7′-pyrrolo[3,2-c]pyridin]-4′-one]	< 0.1	< 0.1	< 0.1	< 0.1	< 0.1	< 0.1	< 0.1	< 0.1
C=CC(=O)N1CCC2(CC1)CNC(=O)c1c2[nH]c(-c2ccnc(C)n2)c1Nc1cccc(F)c1OC [compound 644]	–	–	< 0.1	< 0.1	< 0.1	< 0.1	< 0.1	–
